# Reference: patent US20240173296A1, “PHARMACEUTICAL COMPOSITION OF (S)-KETOROLAC AND PREPARATION METHOD THEREFOR” (NANJING HERON PHARMACEUTICAL SCIENCE AND TECHNOLOGY CO., …, priority 2021, published 2024)
# Like-named read-outs stand apart in the source and are kept apart here.
# Experiments:
# [1] = standard animal model of analgesic activity; cited from earlier work
# [2] = Pharmacokinetic testing after single intravenous administration in beagle dogs; assay type: in vivo; conditions: for AUC(0-inf) / AUC(0-t) / half-life / MRT last / clearance / Vd: dog, mean ± standard deviation; for AUC(0-inf) / AUC(0-t) / half-life / MRT last: plasma analyte = label; for MRT last: read-out: MRT0-t; for clearance / Vd: plasma; for Vd: read-out: Vss
# Method: (§1) Representative batches of lyophilized powder injection of (S)-ketorolac described in the present application were selected to examine the drug metabolism in vivo of beagle dogs and cynomolgus monkeys. The mode of administration was single intravenous administration. The concentration of (S)-ketorolac and (R)-ketorolac in plasma samples was measured by LC-MS/MS, and the blood drug concentration-time curve was plotted to obtain the main pharmacokinetic parameters and examine the chiral transformation of (S)-ketorolac and (R)-ketorolac in animals.
# [3] = Solubility of (S)-ketorolac in phosphate buffer solutions with different pH (Test Example 2); assay type: physicochemical; conditions: 25 °C, aqueous buffer, thermodynamic from solid, read-out: Saturation solubility at 25° C.
# Method: (§2) Phosphate buffer solutions with a pH range of 6.5 to 7.8 were prepared with reference to Chinese Pharmacopoeia (2020 edition). The appropriate amount of (S)-ketorolac (free acid) was added to each phosphate buffer to prepare mixtures of about 20 mg/ml. Each solution was placed in an air bath shaker and shaken at 25° C. for 24 hours, during which the dissolution of (S)-ketorolac in each mixture was observed. The remaining samples were reserved at 25° C. and 40° C., and the formation of isomers was detected after 2 days and 30 days, as shown in Table 2.
# [4] = in vivo; conditions: cynomolgus monkey, iv
# Method: as §1
# [5] = Optical stability of (S)-ketorolac in phosphate buffer solutions with different pH values (Test Example 2); assay type: physicochemical
# Method: as §2
# [6] = Solubility of (S)-ketorolac in solvents; assay type: physicochemical
# [7] = single intravenous (S)-ketorolac 0.16 mg/kg
# [8] = single intravenous (S)-ketorolac 3.2 mg/kg
smiles,measurement,setting,value
O=C(c1ccccc1)c1ccc2n1CCC2C(=O)O (racemic) [ketorolac tromethamine],analgesic activity relative to that of Aspirin,[1],800 times
O=C(c1ccccc1)c1ccc2n1CC[C@H]2C(=O)O [(R)-ketorolac],AUC(0-inf),[2]; [7],79.2 ± 57 ng·h/mL
same,AUC(0-t),[2]; [7],11.7 ± 1.21 ng·h/mL
same,half-life,[2]; [7],22.7 ± 16.8 h
same,MRT last,[2]; [7],3.07 ± 0.144 h
same,AUC(0-t),[2]; [8],724 ± 259 ng·h/mL
same,MRT last,[2]; [8],3.52 ± 0.33 h
same,Chiral transformation rate = (AUC0-t)R/[(AUC0-t)S + (AUC0-t)R] × 100,[2]; [7],2.10%
same,Chiral transformation rate = (AUC0-t)R/[(AUC0-t)S + (AUC0-t)R] × 100,[2]; [8],1.71%
O=C(c1ccccc1)c1ccc2n1CC[C@@H]2C(=O)O [(S)-ketorolac],solubility at 24 h,[3]; phosphate buffer solution pH 6.5,1860 µg/mL
same,solubility at 24 h,[3]; phosphate buffer solution pH 6.8,3030 µg/mL
same,solubility at 24 h,[3]; phosphate buffer solution pH 7.0,4090 µg/mL
same,solubility at 24 h,[3]; phosphate buffer solution pH 7.2,4520 µg/mL
same,solubility at 24 h,[3]; phosphate buffer solution pH 7.4,4720 µg/mL
same,solubility at 24 h,[3]; phosphate buffer solution pH 7.6,5220 µg/mL
same,solubility at 24 h,[3]; phosphate buffer solution pH 7.8,≥ 24200 µg/mL
same,Vd,[4]; 0.24 mg/kg,0.224 ± 0.0778 L/kg
same,clearance,[4]; 0.24 mg/kg,1.77 mL/min/kg
same,Vd,[4]; 2.4 mg/kg,0.18 ± 0.0381 L/kg
same,clearance,[4]; 2.4 mg/kg,1.7 mL/min/kg
same,Isomer purity determined,"[5]; phosphate buffer pH 6.5, 25° C., Day 2",0.20%
same,Isomer purity determined,"[5]; phosphate buffer pH 6.5, 25° C., Day 30",3.43%
same,Isomer purity determined,"[5]; phosphate buffer pH 6.5, 40° C., Day 30",27.90%
same,Isomer purity determined,"[5]; phosphate buffer pH 6.8, 25° C., Day 2",0.21%
same,Isomer purity determined,"[5]; phosphate buffer pH 6.8, 25° C., Day 30",3.22%
same,Isomer purity determined,"[5]; phosphate buffer pH 6.8, 40° C., Day 30",28.14%
same,Isomer purity determined,"[5]; phosphate buffer pH 7.0, 25° C., Day 2",0.22%
same,Isomer purity determined,"[5]; phosphate buffer pH 7.0, 25° C., Day 30",3.20%
same,Isomer purity determined,"[5]; phosphate buffer pH 7.0, 40° C., Day 30",27.11%
same,Isomer purity determined,"[5]; phosphate buffer pH 7.2, 25° C., Day 2",0.22%
same,Isomer purity determined,"[5]; phosphate buffer pH 7.2, 25° C., Day 30",3.34%
same,Isomer purity determined,"[5]; phosphate buffer pH 7.2, 40° C., Day 30",27.71%
same,Isomer purity determined,"[5]; phosphate buffer pH 7.4, 25° C., Day 2",0.21%
same,Isomer purity determined,"[5]; phosphate buffer pH 7.4, 25° C., Day 30",3.31%
same,Isomer purity determined,"[5]; phosphate buffer pH 7.4, 40° C., Day 30",23.91%
same,Isomer purity determined,"[5]; phosphate buffer pH 7.6, 25° C., Day 2",0.22%
same,Isomer purity determined,"[5]; phosphate buffer pH 7.6, 25° C., Day 30",3.43%
same,Isomer purity determined,"[5]; phosphate buffer pH 7.6, 40° C., Day 30",24.35%
same,Isomer purity determined,"[5]; phosphate buffer pH 7.8, 25° C., Day 2",0.51%
same,Isomer purity determined,"[5]; phosphate buffer pH 7.8, 25° C., Day 30",4.92%
same,Isomer purity determined,"[5]; phosphate buffer pH 7.8, 40° C., Day 30",21.28%
same,optical purity of (S)-ketorolac,"[5]; samples in the solution state (phosphate buffer), stored at 25° C. for one month",greater than or equal to 95%
same,solubility in anhydrous ethanol,[6]; anhydrous ethanol,sparingly soluble
same,solubility in dichloromethane,[6]; dichloromethane,slightly soluble
same,solubility in dimethylformamide,[6]; dimethylformamide,freely soluble
same,solubility in methanol,[6]; methanol,soluble
same,solubility in water,[6]; water,nearly or completely insoluble
same,clearance,[2]; [7],3.22 mL/min/kg
same,Vd,[2]; [7],1.29 ± 0.432 L/kg
same,clearance,[2]; [8],0.472 mL/min/kg
same,Vd,[2]; [8],0.391 L/kg
same,AUC(0-inf),[2]; [7],950 ± 385 ng·h/mL
same,AUC(0-t),[2]; [7],545 ± 147 ng·h/mL
same,half-life,[2]; [7],7.13 ± 2.93 h
same,MRT last,[2]; [7],1.61 ± 0.4 h
same,AUC(0-inf),[2]; [8],117000 ± 25900 ng·h/mL
same,AUC(0-t),[2]; [8],41600 ± 3540 ng·h/mL
same,half-life,[2]; [8],10.3 ± 2.18 h
same,MRT last,[2]; [8],2.5 ± 0.149 h
